Assay results taken from article doi:10.1101/2025.11.20.689572v1 (biorxiv, 2025).
Like-named read-outs stand apart in the source and are kept apart here.

Key:
Assay in all cases: cell-based
Parameters in all cases: species or system HEK293; TRUPATH BRET2 G-protein dissociation; antagonist mode against agonist EC80
[1] = target: T1, CHRM2 (Homo sapiens, UniProt P08172); conditions: agonist mode, % of control agonist
T1 sequence (P08172 1-466): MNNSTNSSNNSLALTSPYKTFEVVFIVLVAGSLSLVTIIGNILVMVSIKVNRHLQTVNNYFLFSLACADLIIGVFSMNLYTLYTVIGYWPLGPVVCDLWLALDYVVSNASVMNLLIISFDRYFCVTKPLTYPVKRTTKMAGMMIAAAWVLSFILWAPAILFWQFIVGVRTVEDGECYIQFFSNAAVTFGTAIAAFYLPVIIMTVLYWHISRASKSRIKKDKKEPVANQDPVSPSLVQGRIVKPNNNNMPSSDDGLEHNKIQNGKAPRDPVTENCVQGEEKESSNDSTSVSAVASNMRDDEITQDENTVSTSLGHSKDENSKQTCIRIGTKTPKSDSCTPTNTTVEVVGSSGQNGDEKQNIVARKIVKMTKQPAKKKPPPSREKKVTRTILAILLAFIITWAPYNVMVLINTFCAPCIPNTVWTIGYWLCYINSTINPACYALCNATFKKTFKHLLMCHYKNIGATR

[2] = target: T2, CHRM5 (Homo sapiens, UniProt P08912); conditions: agonist mode, % of control agonist
T2 sequence (P08912 1-532): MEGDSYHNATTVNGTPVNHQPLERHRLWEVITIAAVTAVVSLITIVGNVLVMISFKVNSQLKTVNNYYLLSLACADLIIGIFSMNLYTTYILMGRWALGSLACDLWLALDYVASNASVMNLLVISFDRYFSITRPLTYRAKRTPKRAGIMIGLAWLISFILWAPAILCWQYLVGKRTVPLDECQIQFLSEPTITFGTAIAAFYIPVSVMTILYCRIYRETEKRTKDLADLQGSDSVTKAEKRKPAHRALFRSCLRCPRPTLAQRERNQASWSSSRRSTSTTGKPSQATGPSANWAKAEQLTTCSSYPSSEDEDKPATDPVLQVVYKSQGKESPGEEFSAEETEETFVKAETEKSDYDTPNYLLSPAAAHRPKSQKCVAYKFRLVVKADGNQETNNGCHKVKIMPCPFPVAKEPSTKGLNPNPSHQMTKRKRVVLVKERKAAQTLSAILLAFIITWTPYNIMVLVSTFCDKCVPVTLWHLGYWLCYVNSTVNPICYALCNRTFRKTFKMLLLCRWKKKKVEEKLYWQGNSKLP

[3] = target: HRH4 (Homo sapiens, UniProt Q9H3N8); conditions: agonist mode, % of control agonist
[4] = target: T3, HTR1A (Homo sapiens, UniProt P08908); conditions: agonist mode, % of control agonist
T3 sequence (P08908 1-422): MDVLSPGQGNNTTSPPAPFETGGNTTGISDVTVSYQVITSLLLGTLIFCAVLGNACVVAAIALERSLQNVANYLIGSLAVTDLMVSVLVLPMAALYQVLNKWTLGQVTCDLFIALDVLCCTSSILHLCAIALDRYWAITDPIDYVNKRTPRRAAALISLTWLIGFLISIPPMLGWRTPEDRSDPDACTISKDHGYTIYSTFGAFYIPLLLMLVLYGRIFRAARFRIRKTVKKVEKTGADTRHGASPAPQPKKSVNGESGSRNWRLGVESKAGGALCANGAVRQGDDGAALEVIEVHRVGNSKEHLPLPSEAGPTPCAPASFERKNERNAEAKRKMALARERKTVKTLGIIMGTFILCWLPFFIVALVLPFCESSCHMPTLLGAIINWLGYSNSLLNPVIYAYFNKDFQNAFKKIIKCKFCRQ

[5] = target: HTR1D (Homo sapiens, UniProt P28221); conditions: agonist mode, % of control agonist
[6] = target: HRH3 (Homo sapiens, UniProt Q9Y5N1); conditions: agonist mode
[7] = target: T3, HTR1A; conditions: agonist mode
[8] = HEK293, read-out: N-Desmethyl Xanomeline, Assay=Gi1
[9] = HEK293, read-out: N-Desmethyl Xanomeline, Assay=Gi2
[10] = HEK293, read-out: N-Desmethyl Xanomeline, Assay=Gi3
[11] = HEK293, read-out: N-Desmethyl Xanomeline, Assay=GoA
[12] = HEK293, read-out: N-Desmethyl Xanomeline, Assay=GoB
[13] = HEK293, read-out: N-Desmethyl Xanomeline, Assay=Gz
[14] = N-Desmethyl Xanomeline, Assay=Gi2
[15] = N-Desmethyl Xanomeline, Assay=GoB
[16] = HEK293, read-out: Xanomeline, Assay=Gi1
[17] = HEK293, read-out: Xanomeline, Assay=Gi2
[18] = HEK293, read-out: Xanomeline, Assay=Gi3
[19] = HEK293, read-out: Xanomeline, Assay=GoA
[20] = HEK293, read-out: Xanomeline, Assay=GoB
[21] = HEK293, read-out: Xanomeline, Assay=Gz

HTR1D, sequence (P28221 whole entry): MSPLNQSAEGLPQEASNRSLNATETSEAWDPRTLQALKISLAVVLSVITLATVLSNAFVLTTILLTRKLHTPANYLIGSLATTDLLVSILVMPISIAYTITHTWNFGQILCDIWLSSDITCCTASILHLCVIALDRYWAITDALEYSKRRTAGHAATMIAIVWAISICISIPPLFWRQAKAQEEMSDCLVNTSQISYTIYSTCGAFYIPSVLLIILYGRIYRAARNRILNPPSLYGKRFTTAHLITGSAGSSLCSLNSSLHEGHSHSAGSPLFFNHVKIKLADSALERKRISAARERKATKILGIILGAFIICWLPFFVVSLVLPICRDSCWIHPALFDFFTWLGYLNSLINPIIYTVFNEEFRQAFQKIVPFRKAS
HRH3, sequence (Q9Y5N1 whole entry): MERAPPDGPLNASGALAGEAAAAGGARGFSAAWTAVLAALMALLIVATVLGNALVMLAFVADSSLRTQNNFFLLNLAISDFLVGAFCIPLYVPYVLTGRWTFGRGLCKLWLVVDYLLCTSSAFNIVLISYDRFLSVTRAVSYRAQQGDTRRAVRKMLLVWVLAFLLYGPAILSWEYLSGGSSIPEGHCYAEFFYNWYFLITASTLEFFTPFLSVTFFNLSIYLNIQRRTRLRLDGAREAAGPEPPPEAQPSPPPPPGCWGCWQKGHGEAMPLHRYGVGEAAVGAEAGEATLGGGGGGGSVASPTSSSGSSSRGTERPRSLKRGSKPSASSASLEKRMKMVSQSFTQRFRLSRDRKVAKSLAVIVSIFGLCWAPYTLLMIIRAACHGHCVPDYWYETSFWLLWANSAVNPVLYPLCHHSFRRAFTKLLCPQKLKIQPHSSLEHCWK
HRH4, sequence (Q9H3N8 whole entry): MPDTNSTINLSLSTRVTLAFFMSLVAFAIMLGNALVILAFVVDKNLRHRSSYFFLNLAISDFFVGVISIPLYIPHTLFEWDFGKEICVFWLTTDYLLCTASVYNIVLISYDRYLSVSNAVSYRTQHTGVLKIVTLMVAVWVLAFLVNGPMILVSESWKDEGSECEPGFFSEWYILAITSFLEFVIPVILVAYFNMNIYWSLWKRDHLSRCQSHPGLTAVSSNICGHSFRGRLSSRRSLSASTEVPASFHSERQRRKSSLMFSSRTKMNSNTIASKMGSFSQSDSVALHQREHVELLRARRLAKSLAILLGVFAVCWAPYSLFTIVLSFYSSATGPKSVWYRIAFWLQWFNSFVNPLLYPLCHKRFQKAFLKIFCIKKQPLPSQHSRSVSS

## CCCCCCOc1nsnc1C1=CCCNC1 [N-desmethylxanomeline]
[1]; [8]
  Emax: 87.3%
[1]; [9]
  Emax: 88.1%
[1]; [10]
  Emax: 65.4%
[1]; [11]
  Emax: 101%
[1]; [12]
  Emax: 95.1%
[1]; [13]
  Emax: 81.5%
[2]; HEK293, read-out: N-Desmethyl Xanomeline, Assay=Gq
  Emax: 80.4%
[3]; [8]
  Emax: 79.3%
[3]; [9]
  Emax: 81%
[3]; [10]
  Emax: 86.8%
[3]; [11]
  Emax: 81.7%
[4]; [9]
  Emax: 103%
[4]; [11]
  Emax: 97.4%
[4]; [12]
  Emax: 98.8%
[5]; [8]
  Emax: 88.1%
[5]; [9]
  Emax: 66.3%
[5]; [10]
  Emax: 82.1%
[5]; [11]
  Emax: 92.2%
[5]; [12]
  Emax: 73.8%
[5]; [13]
  Emax: 93.6%
[6]; N-Desmethyl Xanomeline, Assay=Gi1
  EC50: 10.9 µM
[6]; [14]
  EC50: 4.53 µM
[6]; N-Desmethyl Xanomeline, Assay=Gi3
  EC50: 18.7 µM
[6]; [15]
  EC50: 7.02 µM
[7]; [14]
  EC50: 4.33 µM
[7]; N-Desmethyl Xanomeline, Assay=GoA
  EC50: 1.32 µM
[7]; [15]
  EC50: 2 µM

## CCCCCCOc1nsnc1C1=CCCN(C)C1 [Xanomeline]
[1]; [16]
  Emax: 64.6%
[1]; [17]
  Emax: 81.2%
[1]; [18]
  Emax: 30.2%
[1]; [19]
  Emax: 99.1%
[1]; [20]
  Emax: 97.2%
[1]; [21]
  Emax: 60.4%
[2]; HEK293, read-out: Xanomeline, Assay=Gq
  Emax: 82%
[3]; [16]
  Emax: 49.5%
[3]; [17]
  Emax: 65.8%
[3]; [18]
  Emax: 40.2%
[3]; [19]
  Emax: 37.4%
[4]; [17]
  Emax: 99.6%
[4]; [19]
  Emax: 94.5%
[4]; [20]
  Emax: 91.7%
[5]; [16]
  Emax: 69.7%
[5]; [17]
  Emax: 52.7%
[5]; [18]
  Emax: 66.7%
[5]; [19]
  Emax: 86.5%
[5]; [20]
  Emax: 63.4%
[5]; [21]
  Emax: 85.3%
[6]; Xanomeline, Assay=Gi2
  EC50: 10.3 µM
[6]; Xanomeline, Assay=GoA
  EC50: 4.13 µM
[6]; Xanomeline, Assay=GoB
  EC50: 2.64 µM
[7]; Xanomeline, Assay=Gi2
  EC50: 11.7 µM
[7]; Xanomeline, Assay=GoA
  EC50: 2.34 µM
[7]; Xanomeline, Assay=GoB
  EC50: 3.69 µM
